pIC50: −log10 of the molar value.
Test system: M. tuberculosis H37Rv growth inhibition
Experiment: M. tuberculosis H37Rv growth inhibitors, H37Rv strain (AID 1626)
Settings: for IC90: measured here: IC90 against H37Rv; for CC50: measured here: Vero cell cytotoxicity

SMILES	pIC50	IC90 [µM]	CC50 [µM]
Cc1cc(SCC(=O)OC/C(O)=C(\C#N)c2nc3ccccc3[nH]2)c(C)cc1Br	5.04	12.6	> 40
CCOC(=O)/C=C/C(=O)Nc1ccc(Oc2ccccc2)cc1	5.92	> 100	> 40
COc1ccc(Oc2ccc(N/C=C/C(=O)C(C)(C)C)cc2)cc1	4.12	> 100	
COc1c(F)c(F)c(C(=O)Nc2ccc(N3CCN(Cc4ccccc4)CC3)cc2)c(F)c1F	4.44	> 100	27.5
Cc1cc(OCCCCCn2ccnc2)cc(C)c1Cl	5.38	5.19	24.6
Cc1nn(-c2ccccc2)c(Cl)c1/C=N/O		> 100	
COc1cc(/C=C(\C#N)C(=O)NC2CCCCC2C)ccc1OS(=O)(=O)c1ccc(C)cc1 (stereo not given)		> 100	9.49
CCn1c(NC(=O)c2nn(C)cc2Br)nc2ccccc21	5.18	13.2	> 40
Cc1ccc(-n2c(C)nc3c(cnn3-c3ccc(C)c(C)c3)c2=O)cc1C			> 40
Cc1nc([N+](=O)[O-])c(Br)n1Cc1ccc(Cl)c(Cl)c1	5.39	7.03	12.5
Cc1nc(-c2ccccn2)nc(SCC(=O)c2ccc(F)cc2)c1Cl	5.13	13.8	> 40
COc1ccc(NC(=O)c2ccc(-c3ccc([N+](=O)[O-])cc3)o2)cc1		> 100	
Cc1cccc(Cc2cnc(N3C(=N)SC(c4ccccc4)C3=O)s2)c1 (stereo not given)	5.05	> 100	36.8
Cc1ccc(/C=C/C(=O)C2C(=O)c3ccccc3C2=O)cc1	5.47	5.29	> 40
O=C(Nc1nnc(SCc2ccc(F)cc2)s1)c1cnccn1	4.81	> 100	> 40
COc1ccc(Cn2c(O)c(/C=C3/C=CC=N3)c(=O)[nH]c2=O)cc1	6.57	> 100	> 40
COc1ccc(NC(C#N)c2ccccc2OCc2ccccc2)cc1 (stereo not given)	4.16	> 100	
CCOC(=O)c1ccc(NC(=O)c2n[nH]c(=O)c3ccccc23)cc1		> 100	
COc1ccc(N=C2NN=C(c3c(C)[nH]c4ccccc34)CS2)cc1	4.41	> 100	29.6
CCOC(=O)c1ccc(NC(=O)Cc2coc3cc4c(cc23)CCC4)cc1	5.20	> 100	> 40
Nc1ccc(N=Nc2ccccc2)cc1		> 100	
CCOC(=O)c1ccc(-n2c(CCC(=O)O)ccc2-c2cccs2)cc1		> 100	
CCCNC(=O)c1nnsc1S(=O)(=O)c1ccc(Cl)cc1	4.60	28	16.2
Cc1ccc(NC(=O)CCSc2nnc(Cc3ccccc3)o2)cc1	4.78	29.3	
Cc1[nH]n(-c2ccccc2)c(=O)c1N=Nc1nccs1	5.55	5.14	29.5
Nc1nc(F)nc2c1ncn2[C@@H]1O[C@H](CO)[C@@H](O)[C@H]1O	5.58	3.95	0.218
CC(C)=CCN1CCN(CCC2=C(C)CCCC2(C)C)CC1CCO (stereo not given)	5.23	6.66	

SMILES	pIC50	IC90 [µM]	CC50 [µM]
CN(C)c1ccc(C(=O)Nc2nnc(C3=COCCO3)o2)cc1	4.63	26.7	> 40
CCOc1ccc(NC(=O)c2ccccc2CO)cc1	5.02	> 100	
N=C1SCC(=O)N1c1ncc(Cc2cccc(Cl)c2)s1	> 6.71	4.92	> 40
O=[N+]([O-])c1ccc(Sc2cccc3cccnc23)c([N+](=O)[O-])c1	4.48	> 100	4.55
O=C(Cn1cnc2c(nnn2-c2ccccc2)c1=O)N1CCC(Cc2ccccc2)CC1	5.24	6.58	> 40
FC(F)(F)c1ccc(CN2C[C@@H]3C(c4ccc(Cl)nc4)C4(c5cccnc5)CC3(C4)[C@H]2c2ccccc2)cc1 (stereo not given in full)	5.05	18	> 40
CC(=O)CC(=O)Nc1ccc2ccccc2c1	4.87	> 100	
O=C(Nc1ccccc1F)C(=Cc1sc(N2CCOCC2)nc1-c1ccccc1)C(=O)Nc1ccccc1F	4.29	> 100	> 40
CC(=O)Nc1cccc(OCc2ccc(F)cc2)c1		> 100	> 40
Brc1ccc(CSc2ncn[nH]2)cc1	4.34	> 100	> 40
CCOc1ccc(N=C/C=C/c2ccccc2)c(O)c1	6.03	5.41	38
COc1ccc(-c2csc(NC(C)c3nc4cc(Cl)c(N5CCCCC5)cc4n3CCCO)n2)cc1 (stereo not given)	4.89	> 100	> 40
COc1cccc(-c2nnc(SCC(=O)Nc3cc(C)on3)o2)c1	5.24	8.52	> 40
CCOC(=O)c1ccc(NC(=O)CCc2nc(-c3cccc(C)c3)no2)cc1	5.56	> 100	
COc1ccccc1/C=C/CN1CCCC(CO)(Cc2cccc(Cl)c2)C1 (stereo not given)	4.96	16.4	> 40
Cc1nc(S/C(=C/c2ccc(-c3ccc(Cl)cc3)o2)C(=O)O)n[nH]1	4.97	> 100	> 40
OC(CNCc1ccco1)Cn1c2ccc(Br)cc2c2cc(Br)ccc21 (stereo not given)	5.56	3.11	17.2
COc1ccc(N/C=C2\CCc3ccccc3C2=O)cc1		> 100	> 40
O=[N+]([O-])c1cc(-c2n[nH]c(-c3ccccc3)n2)cc([N+](=O)[O-])c1	4.55	> 100	> 40
Clc1ccc(COC(Cn2ccnc2)c2ccc(Cl)cc2Cl)cc1 (stereo not given)	5.43	5.68	33.1
COc1ccc(-c2nnc(NC(=O)c3cc(Cl)ccc3Cl)o2)cc1	5.92	> 100	38.8
COc1ccc(CCNCC(O)Cn2c3ccccc3c3ccccc32)cc1OC (stereo not given)	4.97	15.2	11.8
Cc1cc([N+](=O)[O-])ccc1NC(=O)CN1C2CCC1CC(NC(=O)NC13CC4CC(CC(C4)C1)C3)C2 (stereo not given)	5.52	5.59	> 40
CCCCC(=O)c1ccc(O)cc1	4.82	> 100	
O=C(Nc1nnc(C2CC2)s1)c1ccccn1	5.56	3.68	15.6
CCOC(=O)CNC(=O)CSc1ncnc2c1nnn2-c1ccc(F)cc1		> 100	
O=C(Nc1nc2ccc(F)cc2s1)c1ccccn1	> 6.71	0.248	3.01

SMILES	pIC50	IC90 [µM]	CC50 [µM]
Cc1cc(C)cc(OCc2nnc(SCC(=O)OC3CCCCC3)o2)c1	5.74	11.8	
CCCCCCCCC/C(=N\O)c1ccccn1	5.81	1.68	13.2
COc1cc(-c2ccc3oc(-c4ccsc4)c(C#CC4(O)CCCCC4)c3c2)cc(OC)c1OC	5.42	> 100	> 40
O=C(c1cnc(N2CCN(c3ccccn3)CC2)c2ccccc12)N1CCN(c2cccc(Cl)c2)CC1	5.06	> 100	> 40
Cc1cccc(C=Nc2ccc3c(c2)oc2ccccc23)c1O	5.95	> 100	
Nc1ccc(Oc2ccc(Br)cc2)cc1	4.51	> 100	
O=c1oc2ccccc2nc1/C=C(O)/C=C\c1ccccc1	5.36	13.1	
CCOc1ccc(N2C(=O)/C(=C\c3ccc(OC)c(O)c3)S(=O)(=O)C2c2cccc([N+](=O)[O-])c2)cc1 (stereo not given)		> 100	
CN(C)CCCNc1cc(C(C)(C)C)nc2c(-c3ccccc3)cnn12	5.50	4.9	9.79
O=C(Nc1nnc(-c2ccc(Cl)cc2)o1)c1ccccc1Br	5.95	3.35	> 40
CCOC(=O)c1ccccc1-n1c(C)cc(C2N=C(N)Nc3nc4ccccc4n32)c1C (stereo not given)	4.94	13.7	
CN(C)c1ccc(O)c2c1CC1CC3[C@@H](N(C)C)C(=O)C(C(N)=O)=C(O)[C@]3(O)C(=O)C1=C2O (stereo not given in full)	5.50	7.87	> 40
CCCCCc1cc(=O)oc2c(C(CCN3CCCC(C)C3)c3cc(OC)c(OC)c(OC)c3)c(OC)cc(OC)c12 (stereo not given)	5.12	9.84	14.5
CCCCn1c(NC(=O)C2CCCCC2)nc2ccccc21	6.06	> 100	35
CC(C)(C)C(=O)/C(=C/c1ccncc1)n1cncn1	5.08	11.7	5.11
COc1cnc(-c2ccccn2)nc1Oc1c(C)cccc1C	5.29	14.7	19.8
Cc1ccc(NC(=O)CSCC#N)cc1Cl	4.32	> 100	
O=c1c(C=Nc2ccc(Oc3ccccc3)cc2)c[nH]n1-c1cccc(Cl)n1		> 100	> 40
N#Cc1c(N2CCN(C(=O)c3ccco3)CC2)nc(-c2ccccc2)c2c1CCCC2	5.02	12.2	24.1
CCc1ccc(C2c3[nH]c4ccccc4c3CCN2C(=O)c2cc(C)nn2C)cc1 (stereo not given)	4.65	31.9	> 40
CCN(CC)CCOC(=O)c1ccc(N/C=C(/C#N)c2nc(-c3ccc(OC)c(OC)c3)cs2)cc1	5.38	22.1	> 40
COc1ccc(-c2nc(Cn3c(SCc4ccc(C)cc4)nc4ccncc43)c(C)o2)cc1OC	5.19	> 100	> 40
Cc1ccc(-n2c(C)cc(C3N=C(N)Nc4nc5ccccc5n43)c2C)c(C)c1 (stereo not given)	5.08	10.8	> 40
COc1cccc(C(=O)/C=C/c2ccc(OCC#N)c(OC)c2)c1	4.70	> 100	12.4
O=C(COc1ccc(Cl)cc1)Nc1ccc(Cc2ccncc2)cc1	5.23	12.4	
CN1CCN(c2nc(-c3ccccc3)nc3c2oc2ccccc23)CC1	5.26	10.5	30
